How the values were obtained:
in vivo = details: rat, in vivo, po, 20 mg/kg; for AUC(0-inf): AUC0-∞; for MRT last: MRT0-t; for MRT inf: MRT 0-∞; for half-life: t1/2z
Description: The pharmacokinetic study was described as follows.
The UHPLC-TQ-MS analysis was conducted on an LC-30 AD ultra high-performance liquid chromatograph (Shimadzu, Japan) connected to an AB 4500 (AB Sciex, United States) Triple Quadrupole Mass Spectrometer with an ESI source. Chromatographic separation was achieved on an Acquity UHPLC HSS T3 column (100 × 2.1 mm, 1.8 μm) at 40 °C, and the eluent was aqueous formic acid (100:0.1, v/v) (A) and acetonitrile with formic acid (100:0.1, v/v) (B) at a flow rate of 0.3 mL min^−1. Gradient elution differs in the calculation of residual content and pharmacokinetic experiments. MRM mode was employed. Data processing was performed using Analyst Software (AB Sciex). The UHPLC-TQ-MS method validation was conducted in terms of selectivity, linearity, carryover, accuracy and precision, matrix effect, extraction recovery, dilution integrity, and stability under various conditions, which was performed in line with the FDA guidelines for bioanalytical assays. More details were described in the Supplementary material method.
The comparisons of the relative abundance of the genera between different groups were performed using the Wilcoxon rank-sum test. Comparisons between WKY and SHRs before and after CRO treatment were conducted using either a t-test or one-way ANOVA, with p values < 0.05 considered statistically significant. […] Graphs were created using GraphPad Prism 8.0 software.
For the determination of drug remaining contents in the supernatant, the gradient elution was as follows: 0.1–0.5 min at 45% B; 0.5–1.0 min at 45–65% B; 1.5–4.0 min at 65–85% B; 4.0–4.5 min at 85% B; 4.5–4.6 min at 85%–45% B; 4.6–5.0 min at 45% B. For pharmacokinetics, the gradient elution was performed as follows: 0–0.5 min at 30% B; 0.5–1.5 min at 30–45% B; 1.5–5.0 min at 45–60% B; 5.0–7.0 min at 60–80% B; 7.0–8.0 min at 80% B; 8.1–10.0 min at 30% B. The injection volume was 5 μ L. The multiple reaction monitoring (MRM) mode was used to detect analytes and IS in the positive ion mode. The mass spectrometry parameters were set as follows: ion spray voltage was 5500 V, turbo spray temperature (TEM) of 550℃; nebulizer gas (gas 1) of 50 psi; heater gas (gas 2) of 50 psi and curtain gas of 40 psi. Nitrogen was kept as the nebulizer and auxiliary gas.

[1] = after administration; ref Zhou et al., 2009; Mukai et al., 2015; cited from earlier work
human intestinal flora = tested on: human intestinal flora; set-up: method as in Zimmermann et al., 2019; details: in vitro; fecal samples from healthy individuals; ref Zimmermann et al., 2019; cited from earlier work

SMILES	Decrease of AUC0-∞ (in vivo; SHR compared with WKY) [%]	MRT0-t (in vivo; SHR) [h]	MRT 0-∞ (in vivo; SHR) [h]	t1/2z (in vivo; SHR) [h]	Cmax (in vivo; SHR, Cmax) [ng/mL]	MRT last (in vivo; SHR) [h]	MRT inf (in vivo; SHR) [h]	Tmax (in vivo; SHR, Tmax) [h]	half-life (in vivo; SHR) [min]	Cmax (in vivo; WKY) [ng/mL]	MRT0-t (in vivo; WKY) [h]	AUC(0-t) (in vivo; WKY, AUC0-t) [ng·h/mL]	AUC(0-inf) (in vivo; WKY) [ng·h/mL]	MRT last (in vivo; WKY) [h]	also measured
CCCCc1nc(Cl)c(C(=O)O)n1Cc1ccc(-c2ccccc2-c2nnn[nH]2)cc1 [E-3174]	72.42	11.21 ± 0.73	21.63 ± 10.07	9.10 ± 8.85	1800 ± 1110	8.84 ± 1.59	15.1 ± 8.39	4.75 ± 2.56	604 ± 335	6985.09 ± 6023.88	12.64 ± 1.23	65000 ± 44100	78300 ± 41100	8.39 ± 2	Tmax (in vivo; SHR): 7.00 ± 1.67 h; AUC(0-t) (in vivo; SHR, AUC0-t): 17600 ± 4270 ng·h/mL; AUC(0-inf) (in vivo; SHR): 21600 ± 3070 ng·h/mL
CCCCc1nc(Cl)c(CO)n1Cc1ccc(-c2ccccc2-c2nn[nH]n2)cc1 [Losartan, Losartan potassium]	50.24	7.64 ± 1.16	12.00 ± 2.70	6.04 ± 2.28	4000 ± 1770	6.79 ± 1.38	9.65 ± 3.34	0.25	355 ± 223	9331.32 ± 7242.24	9.99 ± 0.84	29900 ± 15400	39200 ± 20400	5.89 ± 2.1	Decline of AUC0-t (in vivo; SHR compared with WKY): 39.88%; AUC0-∞ (in vivo; SHR): 19483.83 ± 4098.26 ng·h/mL; AUC(0-t) (in vivo; SHR): 18002.60 ± 2806.38 ng·h/mL; MRT 0-∞ (in vivo; WKY): 23.65 ± 16.03 h; t1/2z (in vivo; WKY): 13.67 ± 13.15 h; MRT inf (in vivo; WKY): 16.7 ± 19.2 h; half-life (in vivo; WKY): 817 ± 858 min; Excreted in feces [1]: ~60%; Excreted in urine [1]: approximately 35%; Degradation on exposure to fecal samples (human intestinal flora): approximately 20%

— paper PMC12705613 (Frontiers in Microbiology, 2025)
